Laboratory results: patent EP0052437A1, “Antibacterial compounds, processes for their preparation and compositions containing them” (BEECHAM GROUP PLC, priority 1980, dated 1982)
In brackets after ≈: the same amount, converted by molar mass.

Legend:
Type in all cases: cell-based
M. gallisepticum S6 = experiment: Anti-mycoplasmal in vitro MIC; conditions: Mycoplasmoides gallisepticum, 144 h, Friis broth solidified with 0.9% agarose, 6 days incubation at 37°C
[1] = test system: M. suipneumoniae NCTC 10110; experiment: Anti-mycoplasmal in vitro MIC; conditions: Mesomycoplasma hyopneumoniae, NCTC10110, 144 h, Friis broth solidified with 0.9% agarose, 6 days incubation at 37°C
S. dublin S7 = experiment: Veterinary bacteria MIC; conditions: Salmonella enterica, Diagnostic Sensitivity Test Agar, 18 hours at 37°C
Experimental: (§1) The values were determined using a two fold serial dilutions.in Diagnostic Sensitivity Test Agar with an inoculum of 10^4 organisms and incubation for 18 hours at 37°C.

Past. multocida PA2 = experiment: Veterinary bacteria MIC; conditions: Pasteurella multocida, Diagnostic Sensitivity Test Agar, 18 hours at 37°C
Experimental: as §1

Strep. uberis SPU1 = experiment: Veterinary bacteria MIC; conditions: Streptococcus uberis, Diagnostic Sensitivity Test Agar, 18 hours at 37°C
Experimental: as §1

Past. multocida PA1 = experiment: Veterinary bacteria MIC; conditions: Pasteurella multocida, Diagnostic Sensitivity Test Agar, 18 hours at 37°C
Experimental: as §1

E. Coli NCTC 10418 [2] = experiment: Veterinary bacteria MIC; conditions: Escherichia coli, NCTC10418, Diagnostic Sensitivity Test Agar, 18 hours at 37°C
Experimental: as §1

Past. haemolytica PA5 = experiment: Veterinary bacteria MIC; conditions: Mannheimia haemolytica, Diagnostic Sensitivity Test Agar, 18 hours at 37°C
Experimental: as §1

[3] = test system: Strep. suis (group D) SPS11; experiment: Veterinary bacteria MIC; conditions: Streptococcus suis, Diagnostic Sensitivity Test Agar, 18 hours at 37°C
Experimental: as §1

Strep. dysgalactiae SPD1 = experiment: Veterinary bacteria MIC; conditions: Streptococcus dysgalactiae, Diagnostic Sensitivity Test Agar, 18 hours at 37°C
Experimental: as §1

Bord. bronchiseptica BO9 = experiment: Veterinary bacteria MIC; conditions: Bordetella bronchiseptica, Diagnostic Sensitivity Test Agar, 18 hours at 37°C
Experimental: as §1

Strep. agalactiae SPA1 = experiment: Veterinary bacteria MIC; conditions: Streptococcus agalactiae, Diagnostic Sensitivity Test Agar, 18 hours at 37°C
Experimental: as §1

Staph. aureus B4 = experiment: Veterinary bacteria MIC; conditions: Staphylococcus aureus, Diagnostic Sensitivity Test Agar, 18 hours at 37°C
Experimental: as §1

[4] = test system: Erysipelothrix rhusiopathiae NCTC 8163; experiment: Veterinary bacteria MIC; conditions: NCTC8163, Diagnostic Sensitivity Test Agar, 18 hours at 37°C
Experimental: as §1

Staph. aureus 152 = experiment: Veterinary bacteria MIC; conditions: Staphylococcus aureus, Diagnostic Sensitivity Test Agar, 18 hours at 37°C
Experimental: as §1

[5] = test system: Corynebacterium pyogenes CY1; experiment: Veterinary bacteria MIC; conditions: Trueperella pyogenes, Diagnostic Sensitivity Test Agar, 18 hours at 37°C
Experimental: as §1

E. Coli E1 = experiment: Veterinary bacteria MIC; conditions: Escherichia coli, Diagnostic Sensitivity Test Agar, 18 hours at 37°C
Experimental: as §1

S. typhimurium S18 = experiment: Veterinary bacteria MIC; conditions: Salmonella enterica, Diagnostic Sensitivity Test Agar, 18 hours at 37°C
Experimental: as §1

Bord. bronchiseptica BO8 = experiment: Veterinary bacteria MIC; conditions: Bordetella bronchiseptica, Diagnostic Sensitivity Test Agar, 18 hours at 37°C
Experimental: as §1

M. suipneumoniae NB12 = experiment: Anti-mycoplasmal in vitro MIC; conditions: Mesomycoplasma hyopneumoniae, 144 h, Friis broth solidified with 0.9% agarose, 6 days incubation at 37°C
Staph. aureus Russell = experiment: Human bacteria MIC; conditions: Staphylococcus aureus, nutrient agar with 5% chocolated horse blood, 18 hours at 37°C
Experimental: (§2) The values were determined by serial dilutions in nutrient agar with 5% chocolated horse blood after incubations for 18 hours at 37 °C.

Strep. 641848-C = experiment: Human bacteria MIC; conditions: nutrient agar with 5% chocolated horse blood, 18 hours at 37°C
Experimental: as §2

K. aerogenes A = experiment: Human bacteria MIC; conditions: Klebsiella aerogenes, nutrient agar with 5% chocolated horse blood, 18 hours at 37°C
Experimental: as §2

E. Coli NCTC 10418 [6] = experiment: Human bacteria MIC; conditions: Escherichia coli, NCTC10418, nutrient agar with 5% chocolated horse blood, 18 hours at 37°C
Experimental: as §2

[7] = test system: Ps. aeruginosa NCTC 10662; experiment: Human bacteria MIC; conditions: Pseudomonas aeruginosa, NCTC10662, nutrient agar with 5% chocolated horse blood, 18 hours at 37°C
Experimental: as §2

E. coli ESS = experiment: Human bacteria MIC; conditions: Escherichia coli, nutrient agar with 5% chocolated horse blood, 18 hours at 37°C
Experimental: as §2

Staph. aureus Oxford = experiment: Human bacteria MIC; conditions: Staphylococcus aureus, nutrient agar with 5% chocolated horse blood, 18 hours at 37°C
Experimental: as §2

Bacillus subtilis 6633 = experiment: Human bacteria MIC; conditions: nutrient agar with 5% chocolated horse blood, 18 hours at 37°C
Experimental: as §2

[8] = test system: Corynebacterium xerosis 9755; experiment: Human bacteria MIC; conditions: nutrient agar with 5% chocolated horse blood, 18 hours at 37°C
Experimental: as §2

Sarcina lutea 8340 = experiment: Human bacteria MIC; conditions: Micrococcus luteus, nutrient agar with 5% chocolated horse blood, 18 hours at 37°C
Experimental: as §2

Strep. faecalis I = experiment: Human bacteria MIC; conditions: Enterococcus faecalis, nutrient agar with 5% chocolated horse blood, 18 hours at 37°C
Experimental: as §2

Staph. aureus W2827 = experiment: Human bacteria MIC; conditions: Staphylococcus aureus, nutrient agar with 5% chocolated horse blood, 18 hours at 37°C
Experimental: as §2

[9] = test system: Neisseria catarrhalis 1502; experiment: Human bacteria MIC; conditions: nutrient agar with 5% chocolated horse blood, 18 hours at 37°C
Experimental: as §2

[10] = test system: Pasteurella multocida 1633; experiment: Human bacteria MIC; conditions: nutrient agar with 5% chocolated horse blood, 18 hours at 37°C
Experimental: as §2

P. mirabilis 889 = experiment: Human bacteria MIC; conditions: Proteus mirabilis, nutrient agar with 5% chocolated horse blood, 18 hours at 37°C
Experimental: as §2

M. pneumoniae ATCC 15492 = experiment: Anti-mycoplasmal in vitro MIC; conditions: Mycoplasmoides pneumoniae, ATCC15492, 144 h, Friis broth solidified with 0.9% agarose, 6 days incubation at 37°C
M. dispar NCTC 10125 = experiment: Anti-mycoplasmal in vitro MIC; conditions: 144 h, Friis broth solidified with 0.9% agarose, 6 days incubation at 37°C

Row | SMILES | MIC (M. gallisepticum S6) [mg/L] | MIC [1] [mg/L] | MIC (S. dublin S7) [mg/L] | MIC (Past. multocida PA2) [mg/L] | MIC (Strep. uberis SPU1) [mg/L] | MIC (Past. multocida PA1) [mg/L] | MIC (E. Coli NCTC 10418 [2]) [mg/L] | MIC (Past. haemolytica PA5) [mg/L] | MIC [3] [mg/L] | MIC (Strep. dysgalactiae SPD1) [mg/L] | MIC (Bord. bronchiseptica BO9) [mg/L] | MIC (Strep. agalactiae SPA1) [mg/L] | MIC (Staph. aureus B4) [mg/L] | MIC [4] [mg/L] | MIC (Staph. aureus 152) [mg/L] | MIC [5] [mg/L] | MIC (E. Coli E1) [mg/L] | MIC (S. typhimurium S18) [mg/L] | MIC (Bord. bronchiseptica BO8) [mg/L] | MIC (M. suipneumoniae NB12) [mg/L] | further results
1 | C/C(=C\C(=O)OCc1ccc(C#N)cc1)CC1OCC(CC2OC2C(C)C(C)O)C(O)C1O (centres unmarked) [Example 3, p-Cyanobenzyl monate A] | 0.25 (≈ 0.544 µM) | 0.25 (≈ 0.544 µM) | > 80 | 0.156 (≈ 0.339 µM) | 0.07 (≈ 0.152 µM) | 0.625 (≈ 1.36 µM) | 80 (≈ 174 µM) | 2.5 (≈ 5.44 µM) | 2.5 (≈ 5.44 µM) | 0.156 (≈ 0.339 µM) | 10 (≈ 21.8 µM) | 1.25 (≈ 2.72 µM) | 0.625 (≈ 1.36 µM) | 40 (≈ 87 µM) | 0.312 (≈ 0.679 µM) | > 80 | 80 (≈ 174 µM) | 80 (≈ 174 µM) | 20 (≈ 43.5 µM) | 0.25 (≈ 0.544 µM) | MIC (Staph. aureus Russell): 0.5 mg/L (≈ 1.09 µM); MIC (Strep. 641848-C): 0.25 mg/L (≈ 0.544 µM); MIC (K. aerogenes A): 50 mg/L (≈ 109 µM); MIC (E. Coli NCTC 10418 [6]): 50 mg/L (≈ 109 µM); MIC [7]: > 100 mg/L; MIC (E. coli ESS): 0.25 mg/L (≈ 0.544 µM); MIC (Staph. aureus Oxford): 0.25 mg/L (≈ 0.544 µM); MIC (Bacillus subtilis 6633): 0.1 mg/L (≈ 0.218 µM); MIC [8]: > 100 mg/L; MIC (Sarcina lutea 8340): > 100 mg/L; MIC (Strep. faecalis I): 100 mg/L (≈ 218 µM); MIC (Staph. aureus W2827): 0.5 mg/L (≈ 1.09 µM); MIC [9]: 0.1 mg/L (≈ 0.218 µM); MIC [10]: 0.5 mg/L (≈ 1.09 µM); MIC (P. mirabilis 889): 50 mg/L (≈ 109 µM); MIC (M. pneumoniae ATCC 15492): 0.25 mg/L (≈ 0.544 µM); MIC (M. dispar NCTC 10125): 0.05 mg/L (≈ 0.109 µM)
2 | C/C(=C\C(=O)OCc1cccc(C#N)c1)CC1OCC(CC2OC2C(C)C(C)O)C(O)C1O (centres unmarked) [Example 2, m-Cyanobenzyl monate A] | 2.5 (≈ 5.44 µM) | 0.05 (≈ 0.109 µM) | 80 (≈ 174 µM) | 0.156 (≈ 0.339 µM) | 0.312 (≈ 0.679 µM) | 0.625 (≈ 1.36 µM) | 80 (≈ 174 µM) | 2.5 (≈ 5.44 µM) | 2.5 (≈ 5.44 µM) | 0.312 (≈ 0.679 µM) | 10 (≈ 21.8 µM) | 0.625 (≈ 1.36 µM) | 1.25 (≈ 2.72 µM) | 20 (≈ 43.5 µM) | 0.625 (≈ 1.36 µM) | > 80 | 80 (≈ 174 µM) | 80 (≈ 174 µM) | 20 (≈ 43.5 µM) | 0.05 (≈ 0.109 µM) | MIC (Staph. aureus Russell): 2.5 mg/L (≈ 5.44 µM); MIC (Strep. 641848-C): 1 mg/L (≈ 2.18 µM); MIC (K. aerogenes A): 100 mg/L (≈ 218 µM); MIC (E. Coli NCTC 10418 [6]): 50 mg/L (≈ 109 µM); MIC [7]: > 100 mg/L; MIC (E. coli ESS): 0.5 mg/L (≈ 1.09 µM); MIC (Staph. aureus Oxford): 1 mg/L (≈ 2.18 µM); MIC (Bacillus subtilis 6633): 0.5 mg/L (≈ 1.09 µM); MIC [8]: > 100 mg/L; MIC (Sarcina lutea 8340): > 100 mg/L; MIC (Strep. faecalis I): 100 mg/L (≈ 218 µM); MIC (Staph. aureus W2827): 1 mg/L (≈ 2.18 µM); MIC [9]: 0.25 mg/L (≈ 0.544 µM); MIC [10]: 1 mg/L (≈ 2.18 µM); MIC (P. mirabilis 889): 100 mg/L (≈ 218 µM); MIC (M. pneumoniae ATCC 15492): 0.5 mg/L (≈ 1.09 µM); MIC (M. dispar NCTC 10125): 0.025 mg/L (≈ 0.0544 µM)
